# Literature values as cited in patent US20250152607A1, “COMPOSITIONS FOR VITAMIN D PRODUCTION” (DR WELLER LIMITED, priority 2022, published 2025).
# How the values were obtained:
# [1] = powder
molecule,measurement,setting,value
CC(C)[C@@H](C)/C=C/[C@@H](C)[C@H]1CC[C@H]2C3=CC=C4C[C@@H](O)CC[C@]4(C)[C@H]3CC[C@]12C [Ergosterol],skin irritancy,[1],skin irritant
pre-vitamin D,time for isomerization of pre-vitamin D to vitamin D to reach equilibrium,in hexane at 37° C.,up to 10 days
CC1=C(/C=C\C2=CCC[C@]3(C)[C@@H]([C@H](C)CCCC(C)C)CC[C@@H]23)C[C@@H](O)CC1 [pre-vitamin D3],increase in rate of reaction for vitamin D3 formation from pre-vitamin D3,by interaction with membrane phospholipids,more than 10 fold
